Assay results published in the supplement of paper PMC10627819.

How the values were obtained:
[1] = system: B. subtilis 168; assay: fitness (endpoint OD595 vs no drug) (fraction); higher = more growth
How it was run: (§1)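 Fitness expresses the optical density reached at the stationary-phase transition as a fraction of the robust mean of no-drug control wells. It is capped at 1. Measurements were OD595 every 30 min for 14 h at 37 °C after inoculation of 384-well plates at OD595 0.01 (30 µl, or 55 µl for S. pneumoniae), minus the first reading.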

[2] = system: S. aureus Newman; assay: as above
How it was run: as §1

[3] = system: S. pneumoniae D39V; assay: as above
How it was run: as §1

[4] = system: B. subtilis 168; assay: Bliss interaction score (quartile over a dose matrix) (fitness difference); higher = more antagonism (negative = synergy)
How it was run: (§2)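 Growth was read as OD595 when cultures entered stationary phase, and each value was divided by the plate's robust no-drug mean and capped at 1. This normalised ratio is the fitness value, and fitness for each single drug came from the combination data. The Bliss score subtracts the expected fitness, taken as the product, from the observed fitness and is given as quartiles across technical, biological and donor/recipient replicates.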

[5] = system: S. aureus DSM 20231; assay: as above
How it was run: as §2

[6] = system: S. aureus Newman; assay: as above
How it was run: as §2

[7] = system: S. pneumoniae D39V; assay: as above
How it was run: as §2
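Wherever Bliss interaction score (quartile over a dose matrix) is given: first quartile when negative (synergy) and third quartile when positive (antagonism).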
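Wherever fitness (endpoint OD595 vs no drug) is given: OD595 on entry to stationary phase over no-drug wells; at most 1.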

CN[C@@H]1[C@H](O[C@H]2[C@H](O[C@H]3[C@H](O)[C@@H](O)[C@H](N=C(N)N)[C@@H](O)[C@@H]3N=C(N)N)O[C@@H](C)[C@]2(O)C=O)O[C@@H](CO)[C@H](O)[C@H]1O [Streptomycin] + CC1=C\[C@@H](O)CC(=O)Cc2nc(co2)C(=O)N2CCC=C2C(=O)O[C@H](C(C)C)[C@H](C)/C=C/C(=O)NC\C=C\1 [Virginiamycin M1]
fitness
Conditions	first compound 1 µg/mL	first compound 2 µg/mL	first compound 4 µg/mL	first compound 8 µg/mL
[1], partner 0.0625 µg/mL	–	0.962	–	0.0325
[1], partner 0.125 µg/mL	–	0.966	0.429	0.0265
[1], partner 0.25 µg/mL	–	≥ 1	0.453	0.0334
[2], partner 0.0625 µg/mL	1	0.879	–	–
[2], partner 0.125 µg/mL	0.996	0.891	–	–
[2], partner 0.25 µg/mL	0.978	0.916	–	–
[3], partner 0.5 µg/mL	–	0.977	0.998	0.931
[3], partner 1 µg/mL	–	0.955	0.99	0.884
[3], partner 2 µg/mL	–	0.917	0.944	0.921

fitness, one replicate
Conditions	partner 0.15 µg/mL	partner 0.3 µg/mL	partner 0.5 µg/mL	partner 1 µg/mL	partner 2 µg/mL
[2], first compound 2 µg/mL	–	–	0.804	0.911	0.812
[2], first compound 4 µg/mL	–	–	0.865	0.86	0.82
[2], first compound 8 µg/mL	–	–	0.811	0.845	0.708
[3], first compound 2 µg/mL	0.928	0.912	–	–	–
[3], first compound 4 µg/mL	0.925	0.929	–	–	–
[3], first compound 8 µg/mL	0.917	0.941	–	–	–
[3], first compound 16 µg/mL	–	–	0.866	0.844	0.776

Conditions	Bliss interaction score
[4]	-0.124
[5]	-0.161
[6]	0.0782
[7]	0.0533

CN[C@@H]1[C@H](O[C@H]2[C@H](O[C@H]3[C@H](O)[C@@H](O)[C@H](N=C(N)N)[C@@H](O)[C@@H]3N=C(N)N)O[C@@H](C)[C@]2(O)C=O)O[C@@H](CO)[C@H](O)[C@H]1O [Streptomycin] + CN(C)c1cc(NC(=O)CNC(C)(C)C)c(O)c2c1C[C@H]1C[C@H]3[C@H](N(C)C)C(O)=C(C(N)=O)C(=O)[C@@]3(O)C(O)=C1C2=O [Tigecycline]
fitness
Conditions	partner 0.039 µg/mL	partner 0.078 µg/mL	partner 0.156 µg/mL	partner 0.65 µg/mL	partner 1.3 µg/mL	partner 2.6 µg/mL
[1], first compound 2 µg/mL	0.974	0.985	0.968	–	–	–
[2], first compound 1 µg/mL	0.94	0.986	0.971	–	–	–
[2], first compound 2 µg/mL	0.966	0.95	0.989	–	–	–
[3], first compound 2 µg/mL	–	–	–	0.96	0.973	0.891
[3], first compound 4 µg/mL	–	–	–	0.968	0.989	0.962
[3], first compound 8 µg/mL	–	–	–	0.88	0.938	0.914

fitness, one replicate
Conditions	partner 0.125 µg/mL	partner 0.25 µg/mL	partner 0.5 µg/mL	partner 0.65 µg/mL	partner 1.3 µg/mL	partner 2.6 µg/mL
[1], first compound 2 µg/mL	0.98	0.955	0.951	–	–	–
[1], first compound 4 µg/mL	0.982	0.914	≥ 1	–	–	–
[1], first compound 8 µg/mL	0.481	0.474	0.519	–	–	–
[3], first compound 16 µg/mL	–	–	–	0.866	0.81	0.829

Conditions	Bliss interaction score
[4]	0.145
[5]	0.064
[6]	0.0427
[7]	0.0816

CN[C@@H]1[C@H](O[C@H]2[C@H](O[C@H]3[C@H](O)[C@@H](O)[C@H](N=C(N)N)[C@@H](O)[C@@H]3N=C(N)N)O[C@@H](C)[C@]2(O)C=O)O[C@@H](CO)[C@H](O)[C@H]1O [Streptomycin] + CN(N=O)C(=O)N[C@@H](C=O)[C@@H](O)[C@H](O)[C@H](O)CO [Streptozotocin]
fitness
Conditions	first compound 1 µg/mL	first compound 2 µg/mL	first compound 4 µg/mL	first compound 8 µg/mL
[1], partner 0.15 µg/mL	–	0.954	0.308	0.0987
[1], partner 0.3 µg/mL	–	0.978	0.332	0.0267
[1], partner 0.6 µg/mL	–	0.98	0.266	0.0223
[2], partner 0.15 µg/mL	0.884	0.818	–	–
[2], partner 0.3 µg/mL	0.767	0.649	–	–
[2], partner 0.6 µg/mL	0.555	0.485	0.473	–
[3], partner 1.2 µg/mL	–	0.988	0.975	0.896
[3], partner 2.4 µg/mL	–	0.945	0.932	0.951
[3], partner 4.8 µg/mL	–	0.954	0.958	0.903

[3], first compound 16 µg/mL, one replicate
Conditions	fitness
partner 1.2 µg/mL	0.744
partner 2.4 µg/mL	0.773
partner 4.8 µg/mL	0.782

Conditions	Bliss interaction score
[4]	-0.134
[5]	-0.109
[6]	0.0357
[7]	0.062

CN[C@@H]1[C@H](O[C@H]2[C@H](O[C@H]3[C@H](O)[C@@H](O)[C@H](N=C(N)N)[C@@H](O)[C@@H]3N=C(N)N)O[C@@H](C)[C@]2(O)C=O)O[C@@H](CO)[C@H](O)[C@H]1O [Streptomycin] + CN[C@H](CC(C)C)C(=O)N[C@H]1C(=O)N[C@@H](CC(N)=O)C(=O)N[C@H]2C(=O)N[C@H]3C(=O)N[C@H](C(=O)N[C@H](C(=O)O)c4cc(O)cc(O)c4-c4cc3ccc4O)[C@H](O)c3ccc(c(Cl)c3)Oc3cc2cc(c3O[C@@H]2O[C@H](CO)[C@@H](O)[C@H](O)[C@H]2O[C@H]2C[C@](C)(N)[C@H](O)[C@H](C)O2)Oc2ccc(cc2Cl)[C@H]1O [Vancomycin]
fitness
Conditions	first compound 1 µg/mL	first compound 2 µg/mL	first compound 4 µg/mL	first compound 8 µg/mL
[2], partner 0.1875 µg/mL	0.959	0.941	–	–
[2], partner 0.375 µg/mL	0.952	0.946	–	–
[2], partner 0.75 µg/mL	0.978	0.944	–	–
[3], partner 0.03125 µg/mL	–	0.978	0.956	0.941
[3], partner 0.0625 µg/mL	–	0.921	0.969	0.913
[3], partner 0.125 µg/mL	–	0.942	0.942	–
[3], partner 0.25 µg/mL	–	–	0.704	0.691
[3], partner 0.5 µg/mL	–	–	0.0741	0.0434

fitness, [3], one replicate
Conditions	partner 0.125 µg/mL	partner 0.25 µg/mL	partner 0.5 µg/mL
first compound 2 µg/mL	–	0.422	0.0318
first compound 16 µg/mL	0.825	0.112	0.0914

Conditions	Bliss interaction score
[4]	-0.0393
[5]	0.0918
[6]	0.055
[7]	0.088

CN[C@@H]1[C@H](O[C@H]2[C@H](O[C@H]3[C@H](O)[C@@H](O)[C@H](N=C(N)N)[C@@H](O)[C@@H]3N=C(N)N)O[C@@H](C)[C@]2(O)C=O)O[C@@H](CO)[C@H](O)[C@H]1O [Streptomycin] + Cn1nnc(-c2ccc(-c3ccc(N4C[C@H](CO)OC4=O)cc3F)cn2)n1 [Tedizolid]
fitness
Conditions	partner 0.03125 µg/mL	partner 0.0625 µg/mL	partner 0.125 µg/mL	partner 0.25 µg/mL	partner 0.5 µg/mL
[2], first compound 1 µg/mL	–	0.928	0.767	–	–
[3], first compound 2 µg/mL	0.896	0.952	0.811	–	–
[3], first compound 4 µg/mL	0.898	0.886	0.788	0.739	0.336
[3], first compound 8 µg/mL	0.893	0.912	0.829	0.732	0.353

fitness, [3], one replicate
Conditions	partner 0.125 µg/mL	partner 0.25 µg/mL	partner 0.5 µg/mL
first compound 2 µg/mL	–	0.748	0.373
first compound 16 µg/mL	0.695	0.531	0.236

Conditions	Bliss interaction score
[4]	0.189
[5]	0.155
[6]	-0.188
[7]	-0.057
